Source: ChEMBL document CHEMBL3217463, “Design, synthesis and biological evaluation of -lactam hydroxamate based TACE inhibitors” (Medchemcomm, 2011)

Experiments:
Rattus norvegicus [1] = assay: Toxicity in Wistar rat assessed as alkaline phosphatase at 100 mg/kg, po bid for 28 days (reference value: 134.66 +/- 5.3 U/L); type: organism-based; parameters: dose 100 mg/kg, route oral; conditions: in vivo, 672 h
[2] = Elimination rate constant in Wistar rat at 5 mg/kg, iv; type: ADME, organism-based; parameters: dose 5 mg/kg, route intravenous; conditions: in vivo
[3] = target: Matrix metalloproteinase-14 (Homo sapiens, UniProt P50281); assay: Inhibition of MMP14 (unknown origin) by fluorescence-based FRET assay
Rattus norvegicus [4] = assay: Half life in Wistar rat at 5 mg/kg, po; type: ADME, organism-based; parameters: dose 5 mg/kg, route oral; conditions: in vivo
[5] = target: T1, Disintegrin and metalloproteinase domain-containing protein 17 (Homo sapiens, UniProt P78536); assay: Ratio of IC50 for human catalytic domain of TACE to IC50 for MMP8 (unknown origin)
Rattus norvegicus [6] = assay: Toxicity in Wistar rat assessed as RBC count at 100 mg/kg, po bid for 28 days (reference value: 7.38 +/- 0.11 10^6/ul); type: organism-based; parameters: dose 100 mg/kg, route oral; conditions: in vivo, 672 h
[7] = Tmax in Wistar rat at 5 mg/kg, po; type: ADME, organism-based; parameters: dose 5 mg/kg, route oral; conditions: in vivo
Rattus norvegicus [8] = assay: Toxicity in Wistar rat assessed as aspartate aminotransferase at 100 mg/kg, po bid for 28 days (reference value: 147.16 +/- 11.75 U/L); type: organism-based; parameters: dose 100 mg/kg, route oral; conditions: in vivo, 672 h
[9] = target: T1, Disintegrin and metalloproteinase domain-containing protein 17; assay: Inhibition of human catalytic domain of TACE assessed as inhibit the cleavage of the substrate by fluorescence-based FRET assay
[10] = AUC in Wistar rat at 5 mg/kg, po; type: ADME, organism-based; parameters: dose 5 mg/kg, route oral; conditions: plasma
Interstitial collagenase = target: T2, Interstitial collagenase (Homo sapiens, UniProt P03956); assay: Inhibition of MMP1 (unknown origin) by fluorescence-based FRET assay
T2 sequence (P03956 whole entry): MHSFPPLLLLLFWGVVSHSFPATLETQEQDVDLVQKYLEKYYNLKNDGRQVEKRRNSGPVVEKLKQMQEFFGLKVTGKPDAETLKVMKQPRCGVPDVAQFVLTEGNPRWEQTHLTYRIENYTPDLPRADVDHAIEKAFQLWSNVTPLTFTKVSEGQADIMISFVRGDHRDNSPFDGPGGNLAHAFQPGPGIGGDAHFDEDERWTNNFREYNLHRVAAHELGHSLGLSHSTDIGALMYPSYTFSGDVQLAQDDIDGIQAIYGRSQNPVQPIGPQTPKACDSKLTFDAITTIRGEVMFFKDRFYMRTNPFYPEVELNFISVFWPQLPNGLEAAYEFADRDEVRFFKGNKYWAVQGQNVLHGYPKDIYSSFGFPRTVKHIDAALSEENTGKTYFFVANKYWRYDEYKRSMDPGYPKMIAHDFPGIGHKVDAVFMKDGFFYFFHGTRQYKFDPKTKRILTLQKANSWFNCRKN

Rattus norvegicus [11] = assay: Toxicity in Wistar rat assessed as relative heart weight at 100 mg/kg, po bid for 28 days (reference value: 0.345 +/- 0.007 %); type: organism-based; parameters: dose 100 mg/kg, route oral; conditions: in vivo, 672 h
[12] = target: T1, Disintegrin and metalloproteinase domain-containing protein 17; assay: Ratio of IC50 for human catalytic domain of TACE to IC50 for MMP14 (unknown origin)
Rattus norvegicus [13] = assay: Toxicity in Wistar rat assessed as body weight at 100 mg/kg, po bid for 28 days; type: organism-based; parameters: dose 100 mg/kg, route oral; conditions: in vivo, 672 h
Neutrophil collagenase = Neutrophil collagenase (Homo sapiens, UniProt P22894); assay: Inhibition of MMP8 (unknown origin) by fluorescence-based FRET assay
Mus musculus = assay: Antiinflammatory activity in po dosed Swiss Albino mouse assessed as inhibition of LPS-induced TNFalpha secretion in blood treated 0.5 hrs before LPS and measured after 1 hr of LPS stimulus by ELISA; type: functional
[14] = target: 72 kDa type IV collagenase (Homo sapiens, UniProt P08253); assay: Inhibition of MMP2 (unknown origin) by fluorescence-based FRET assay
Rattus norvegicus [15] = assay: Toxicity in Wistar rat assessed as relative kidney weight at 100 mg/kg, po bid for 28 days (reference value: 0.821 +/- 0.03 %); type: organism-based; parameters: dose 100 mg/kg, route oral; conditions: in vivo, 672 h
[16] = target: T1, Disintegrin and metalloproteinase domain-containing protein 17; assay: Ratio of IC50 for human catalytic domain of TACE to IC50 for MMP7 (unknown origin)
[17] = target: T1, Disintegrin and metalloproteinase domain-containing protein 17; assay: Ratio of IC50 for human catalytic domain of TACE to IC50 for ADAM10 (unknown origin)
Rattus norvegicus [18] = assay: Toxicity in Wistar rat assessed as WBC count at 100 mg/kg, po bid for 28 days (reference value: 8.20 +/- 0.33 10^3/ul); type: organism-based; parameters: dose 100 mg/kg, route oral; conditions: in vivo, 672 h
Stromelysin-1 = Stromelysin-1 (Homo sapiens, UniProt P08254); assay: Inhibition of MMP3 (unknown origin) by fluorescence-based FRET assay
Rattus norvegicus [19] = assay: Toxicity in Wistar rat assessed as alanine aminotransferase at 100 mg/kg, po bid for 28 days (reference value: 20.78 +/- 1.31 U/L); type: organism-based; parameters: dose 100 mg/kg, route oral; conditions: in vivo, 672 h
[20] = target: Matrix metalloproteinase-9 (Homo sapiens, UniProt P14780); assay: Inhibition of MMP9 (unknown origin) by fluorescence-based FRET assay
[21] = AUC in Wistar rat at 5 mg/kg, iv; type: ADME, organism-based; parameters: dose 5 mg/kg, route intravenous; conditions: plasma
Matrilysin = target: T3, Matrilysin (Homo sapiens, UniProt P09237); assay: Inhibition of MMP7 (unknown origin) by fluorescence-based FRET assay
T3 sequence (P09237 whole entry): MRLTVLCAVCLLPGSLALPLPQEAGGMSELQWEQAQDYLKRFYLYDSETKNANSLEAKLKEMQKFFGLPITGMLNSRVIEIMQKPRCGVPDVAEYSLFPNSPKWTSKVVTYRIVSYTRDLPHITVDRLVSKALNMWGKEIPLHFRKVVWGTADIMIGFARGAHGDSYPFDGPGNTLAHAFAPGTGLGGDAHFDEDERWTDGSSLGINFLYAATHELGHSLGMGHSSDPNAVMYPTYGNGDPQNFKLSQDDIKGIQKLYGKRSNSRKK

Rattus norvegicus [22] = assay: Elimination rate constant in Wistar rat at 5 mg/kg, po; type: ADME, organism-based; parameters: dose 5 mg/kg, route oral; conditions: in vivo
[23] = target: T1, Disintegrin and metalloproteinase domain-containing protein 17; assay: Ratio of IC50 for human catalytic domain of TACE to IC50 for MMP1 (unknown origin)
Rattus norvegicus [24] = assay: Toxicity in Wistar rat assessed as relative brain weight at 100 mg/kg, po bid for 28 days (reference value: 0.727+/- 0.024 %); type: organism-based; parameters: dose 100 mg/kg, route oral; conditions: in vivo, 672 h
Rattus norvegicus [25] = assay: Toxicity in Wistar rat assessed as food consumption at 100 mg/kg, po bid for 28 days; type: organism-based; parameters: dose 100 mg/kg, route oral; conditions: in vivo, 672 h
[26] = target: T1, Disintegrin and metalloproteinase domain-containing protein 17; assay: Ratio of IC50 for human catalytic domain of TACE to IC50 for MMP2 (unknown origin)
Collagenase 3 = Collagenase 3 (Homo sapiens, UniProt P45452); assay: Inhibition of MMP13 (unknown origin) by fluorescence-based FRET assay
[27] = Half life in Wistar rat at 5 mg/kg, iv; type: ADME, organism-based; parameters: dose 5 mg/kg, route intravenous; conditions: in vivo
[28] = target: T1, Disintegrin and metalloproteinase domain-containing protein 17; assay: Ratio of IC50 for human catalytic domain of TACE to IC50 for MMP13 (unknown origin)

T1 sequence (P78536 whole entry, the tested form may be a part): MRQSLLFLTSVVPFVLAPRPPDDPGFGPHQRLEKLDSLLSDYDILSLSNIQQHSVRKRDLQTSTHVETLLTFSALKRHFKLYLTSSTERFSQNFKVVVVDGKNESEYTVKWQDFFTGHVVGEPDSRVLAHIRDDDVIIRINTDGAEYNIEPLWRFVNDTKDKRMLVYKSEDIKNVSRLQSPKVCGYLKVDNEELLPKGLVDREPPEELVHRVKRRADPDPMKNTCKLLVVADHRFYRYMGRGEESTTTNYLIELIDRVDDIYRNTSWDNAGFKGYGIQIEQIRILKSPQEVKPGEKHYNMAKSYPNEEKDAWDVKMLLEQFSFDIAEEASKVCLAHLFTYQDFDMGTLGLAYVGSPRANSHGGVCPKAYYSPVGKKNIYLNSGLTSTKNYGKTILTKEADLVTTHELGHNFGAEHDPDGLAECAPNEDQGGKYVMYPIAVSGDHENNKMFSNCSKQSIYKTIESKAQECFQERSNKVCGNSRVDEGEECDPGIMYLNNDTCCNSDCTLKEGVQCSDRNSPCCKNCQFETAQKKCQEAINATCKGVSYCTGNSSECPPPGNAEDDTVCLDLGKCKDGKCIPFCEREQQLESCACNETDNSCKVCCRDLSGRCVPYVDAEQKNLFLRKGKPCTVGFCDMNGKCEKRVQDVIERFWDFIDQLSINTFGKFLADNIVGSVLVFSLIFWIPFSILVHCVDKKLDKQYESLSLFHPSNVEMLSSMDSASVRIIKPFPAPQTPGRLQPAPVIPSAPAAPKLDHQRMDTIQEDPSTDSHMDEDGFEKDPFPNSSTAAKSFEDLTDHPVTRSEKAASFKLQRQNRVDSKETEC
Matrix metalloproteinase-9, sequence (P14780 whole entry): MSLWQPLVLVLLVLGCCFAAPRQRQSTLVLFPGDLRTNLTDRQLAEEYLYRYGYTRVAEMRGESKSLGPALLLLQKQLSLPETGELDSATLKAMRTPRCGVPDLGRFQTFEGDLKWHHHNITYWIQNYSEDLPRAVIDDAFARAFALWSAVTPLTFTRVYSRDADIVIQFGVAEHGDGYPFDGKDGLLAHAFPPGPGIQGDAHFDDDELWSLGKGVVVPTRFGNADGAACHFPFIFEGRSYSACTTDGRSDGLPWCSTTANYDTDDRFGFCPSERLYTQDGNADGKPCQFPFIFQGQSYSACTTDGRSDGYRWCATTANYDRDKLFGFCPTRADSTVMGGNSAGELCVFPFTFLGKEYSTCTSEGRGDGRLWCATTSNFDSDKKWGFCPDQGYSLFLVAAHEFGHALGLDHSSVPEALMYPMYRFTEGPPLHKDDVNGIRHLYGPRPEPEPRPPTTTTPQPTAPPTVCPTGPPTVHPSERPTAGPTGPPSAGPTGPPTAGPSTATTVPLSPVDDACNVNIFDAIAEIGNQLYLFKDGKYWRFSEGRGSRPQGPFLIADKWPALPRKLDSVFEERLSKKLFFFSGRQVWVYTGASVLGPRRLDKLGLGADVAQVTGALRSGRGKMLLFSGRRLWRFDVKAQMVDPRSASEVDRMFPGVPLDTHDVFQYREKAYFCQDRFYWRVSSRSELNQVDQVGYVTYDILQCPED
Neutrophil collagenase, sequence (P22894 whole entry): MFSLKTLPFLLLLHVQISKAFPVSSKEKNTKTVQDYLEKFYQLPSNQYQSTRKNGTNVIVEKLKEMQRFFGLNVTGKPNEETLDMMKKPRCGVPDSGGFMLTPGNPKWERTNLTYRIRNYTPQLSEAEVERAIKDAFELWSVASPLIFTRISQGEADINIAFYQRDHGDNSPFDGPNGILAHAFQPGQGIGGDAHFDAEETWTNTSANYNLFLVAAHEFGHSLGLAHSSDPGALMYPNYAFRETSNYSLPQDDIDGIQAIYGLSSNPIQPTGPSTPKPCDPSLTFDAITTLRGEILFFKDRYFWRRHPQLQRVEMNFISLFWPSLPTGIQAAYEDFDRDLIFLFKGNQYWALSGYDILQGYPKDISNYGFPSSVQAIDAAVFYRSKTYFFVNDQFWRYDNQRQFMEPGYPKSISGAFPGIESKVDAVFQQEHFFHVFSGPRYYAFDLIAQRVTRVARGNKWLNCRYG
Stromelysin-1, sequence (P08254 whole entry): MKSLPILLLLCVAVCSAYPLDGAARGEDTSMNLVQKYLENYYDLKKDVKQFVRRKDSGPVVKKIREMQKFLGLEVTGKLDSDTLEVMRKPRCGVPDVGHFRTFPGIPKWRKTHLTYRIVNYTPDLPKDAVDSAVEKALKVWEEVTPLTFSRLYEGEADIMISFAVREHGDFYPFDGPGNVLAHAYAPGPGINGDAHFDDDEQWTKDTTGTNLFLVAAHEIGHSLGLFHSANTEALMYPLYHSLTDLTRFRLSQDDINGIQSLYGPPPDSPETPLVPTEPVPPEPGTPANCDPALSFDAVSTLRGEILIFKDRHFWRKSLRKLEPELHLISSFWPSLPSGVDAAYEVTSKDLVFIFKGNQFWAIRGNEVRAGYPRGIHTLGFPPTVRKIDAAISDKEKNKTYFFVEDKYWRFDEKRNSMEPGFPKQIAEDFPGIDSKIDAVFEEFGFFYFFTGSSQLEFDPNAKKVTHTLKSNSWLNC
72 kDa type IV collagenase, sequence (P08253 whole entry): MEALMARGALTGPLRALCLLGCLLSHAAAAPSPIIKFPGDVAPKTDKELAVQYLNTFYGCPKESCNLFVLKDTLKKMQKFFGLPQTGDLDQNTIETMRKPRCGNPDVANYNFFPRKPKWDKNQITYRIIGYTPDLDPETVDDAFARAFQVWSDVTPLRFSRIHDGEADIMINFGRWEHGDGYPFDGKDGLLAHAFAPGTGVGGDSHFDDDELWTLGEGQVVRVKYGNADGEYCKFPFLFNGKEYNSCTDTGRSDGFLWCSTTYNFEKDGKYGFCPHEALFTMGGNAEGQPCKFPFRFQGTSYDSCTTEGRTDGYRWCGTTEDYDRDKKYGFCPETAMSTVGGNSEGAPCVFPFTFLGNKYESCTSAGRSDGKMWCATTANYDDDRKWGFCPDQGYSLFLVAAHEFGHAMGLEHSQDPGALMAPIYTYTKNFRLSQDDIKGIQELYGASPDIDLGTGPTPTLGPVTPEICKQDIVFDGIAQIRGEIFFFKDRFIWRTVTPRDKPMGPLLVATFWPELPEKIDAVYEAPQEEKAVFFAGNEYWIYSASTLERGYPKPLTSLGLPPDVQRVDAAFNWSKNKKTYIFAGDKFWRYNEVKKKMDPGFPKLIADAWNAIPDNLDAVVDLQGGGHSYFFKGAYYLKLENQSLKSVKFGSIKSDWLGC

COCCc1cc(COc2ccc([C@]3(N)CCN([C@H](CC(C)C)C(=O)NO)C3=O)cc2)c2ccccc2n1
Activity (Rattus norvegicus [1]): 121.2 U/L | k el [2]: 0.000283 s⁻¹ | IC50 [3]: 1.08 µM | t1/2 (Rattus norvegicus [4]): 3.81 h | Ratio IC50 [5]: > 500 | Activity (Rattus norvegicus [6]): 8.01 ×10⁶ /uL | Tmax [7]: 0.33 h | Activity (Rattus norvegicus [8]): 140.2 U/L | IC50 [9]: 0.0023 µM | AUC [10]: 11800 ng·h/mL | IC50 (Interstitial collagenase): 1.06 µM | Activity (Rattus norvegicus [11]): 0.358% | Ratio IC50 [12]: > 500 | Activity (Rattus norvegicus [13]): Non-toxic | IC50 (Neutrophil collagenase): 1 µM | ED50 (Mus musculus): 3.1 mg/kg | IC50 [14]: 1.09 µM | Activity (Rattus norvegicus [15]): 0.878% | Ratio IC50 [16]: > 500 | Ratio IC50 [17]: > 500 | Activity (Rattus norvegicus [18]): 8.41 ×10³ /uL | IC50 (Stromelysin-1): 1.02 µM | Activity (Rattus norvegicus [19]): 21.04 U/L | IC50 [20]: 1.21 µM | AUC [21]: 19700 ng·h/mL | IC50 (Matrilysin): 1.01 µM | Kel (Rattus norvegicus [22]): 0.44 h⁻¹ | Ratio IC50 [23]: > 500 | Activity (Rattus norvegicus [24]): 0.703% | Activity (Rattus norvegicus [25]): Non-toxic | Ratio IC50 [26]: > 500 | IC50 (Collagenase 3): 1.11 µM | half-life [27]: 1.09 h | Ratio IC50 [28]: > 500
